Results: patent US20040110848A1, “Method and kit for treating cancer” (priority 2002, published 2004)

Columns and labels:
[1] = system: PC-3 prostate cancer cells; assay: Membrane Invasion Culture System (MICS); assay type: cell-based, human; settings: for percent invaded: PC-3, 24 hr, MATRIGEL coated membrane, Perillyl Alcohol 400 μM, Genistein 20 μM, γ-tocotrienol 20 μM, control 12.5%; for invasive ability of PC-3 cells: PC-3, MICS
Text: The Membrane Invasion Culture System (MICS) represents a direct measurement of intracellular reorganization and invasive capability of cancer cell lines. The MICS protocol was used to quantitate the effects of isoprenoid treatment on the invasive potential of PC-3 prostate cancer cells. Polycarbonate membranes (10 μm pores) were coated with a basement membrane matrix (MATRIGEL™, BD Biosciences) and placed inside MICS chambers. Both upper and lower chambers were filled with serum-free RPMI 1640 containing Mito plus™. Cells were seeded onto the upper wells at 1×10^5 cells/well. After 24 hr, cells that had invaded through the membrane were collected and counted. Invasion rates were calculated as the percent cells invading the matrix coated membrane compared to total number of cells seeded (Table 3).

4E-BP1 (Ser65) = assay: Western blot of phospho-4E-BP1 (Ser65) in prostate cancer cells; assay type: cell-based, human; settings: both prostate cell lines (PC-3, DU145); perillyl alcohol 400 μM 16 hr, genistein 40 μM 4 hr, LY 294002 10 μM 4 hr
Experimental: (§1) We treated PC-3, DU145, and Caco-2 (colon adenocarcinoma) cells with lovastatin (LVT), perillyl alcohol (PA), the P13 kinase inhibitor, LY294002 (LY), or genistein (Gen). PC-3, DU145, and Caco-2 cells were plated in RPMI plus 10% FBS and cells allowed to grow for 24 hr. Medium was supplemented with lovastatin (1 μM for 16 hr), perillyl alcohol (400 μM for 16 hr), genistein (40 μM for 4 hr), or LY 294002 (10 μM for 4 hr). Cells were lysed in RIPA buffer and protein extracts quantitated. Aliquots (100 μg) were electrophoresed and transferred to PVDF membranes. […] The eIF4E (FIG. 6, top panel) and 4E-BP1 (FIG. 6, middle panel) were detected using antibodies specific for eIF4E and phospho-4E-BP1 (Ser65). Specific proteins were detected by ECL using a Kodak Image Station.
(§2) Referring now to FIG. 6 which depicts a Western blot analysis of eIF4E, 4E-BP1 (Ser65) and Rab3A from various cells. […] The same blot was reprobed with phospho-4E-BP1 (Ser65). […] Rab3A levels were also compared in the highly metastatic PC-3 cells, DU145 and in Caco-2, which is considered to have low metastatic potential.

MMP-9 = assay: Gelatin zymography of conditioned media, MMP-9; assay type: cell-based, human; settings: for MMP-9 Count: perillyl alcohol 400 μM, 16 hr
Text: (§3) Since the effects of isoprenoids with or without genistein on prostate cancer metastasis had not been explored prior to the present invention, the effects of genistein, perillyl alcohol, and γ-tocotrienol were studied on MMP-9 and MMP-2 activity. MMP activity as described in the background has been linked in part to the Ras/ERK pathway and may also be involved in a second unidentified pathway that is ERK-independent. Therefore, we employed gelatin zymography to study effects of isoprenoids on MMP-9 and MMP-2 activation and secretion.
(§4) Referring now to FIG. 8. which depicts a gelatin zymogram showing the effects of perillyl alcohol (PA), genistein (Gen), or γ-tocotrienol (g-Toco) on MMP activity. The results of FIG. 8 are quantified in Table 2. Cells were grown in 100 mm culture plates to approximately 80% confluency. Prior to experimental treatments, cells were washed extensively in serum-free medium and then incubated for […] in serum-free media with Mito plus® serum supplement (Becton-Dickinson) in the absence or presence of isoprenoids. Conditioned media were then collected from PC-3 and DU145 cells that were incubated in the absence or presence of genistein (20 μM), perillyl alcohol (400 μM), or γ-tocotrienol (20 μM) for 16 hr and clarified by centrifugation. MMP activity in conditioned media was analyzed by mixing aliquots with SDS sample loading buffer without β-mercaptoethanol (non-reducing). Samples were electrophoresed on a 10% polyacrylamide (29:1) separating gel containing 0.1% (w/v) gelatin. Gels were incubated in developing buffer at 37° C. overnight. Enzyme activity was observed after staining with Coomassie Blue as clear bands on a blue background of undigested gelatin. Band density was then normalized to cell number prior to- and post-treatment (See FIG. 8).

[2] = system: human prostate cancer cells; settings: human prostate cancer cells in culture; cited from earlier work
MMP-2 = assay: Gelatin zymography of conditioned media, MMP-2; assay type: cell-based, human; settings: for MMP-2 Count: perillyl alcohol 400 μM, 16 hr
Text: as §3, §4

PC-3 = assay: In vitro collagen gel contraction assay, PC-3; assay type: cell-based, human; settings: for Diameter (cm) of collagen gel: PC-3, Perillyl Alcohol 400 μM, Genistein 20 μM, control 2.0
Experimental: (§5) An in vitro collagen gel contraction assay was used to evaluate the effects of isoprenoids on biomechanical tumor cell matrix remodeling from various prostate cancer cell lines. Collagen gel suspensions for each tumor cell line were prepared by mixing a 250 μl suspension of 3×10^6 cells/ml with 250 μl of undiluted rat tail collagen type I (BD Biosciences). The resultant collagen gel suspensions were dripped onto 35 mm petri dishes containing 3 ml RPMI 1640 in 10% FBS to prevent adhesion of collagen to the dish. Collagen gel suspensions were allowed to polymerize for one hr. Isoprenoid treatments were added 24 hr after exchanging culture medium and were removed 24-48 hr post treatment.
Table 4 summaries the effects on collagen gel ball diameters for both PC3 and DU145 as a result from being exposed to various isoprenoids during the in vitro collagen gel contraction assay.

DU145 = assay: In vitro collagen gel contraction assay, DU145; assay type: cell-based, human; settings: Perillyl Alcohol 400 μM, Genistein 20 μM, control 3.0
Experimental: as §5

[3] = system: androgen-responsive prostate tumor cell line LNCaP; settings: cited from earlier work
HMG-CoA reductase [4] = assay: Rate of HMG-CoA reductase synthesis (35S-labeled immunoprecipitable reductase) in lovastatin-treated C100 cells; assay type: cell-based, Syrian Hamster; settings: for reductase synthesis lowered by: lovastatin treated C100 cells
Experimental: (§6) As discussed above, the end products of plant mevalonate metabolism, i.e., isoprenoids, suppress mammalian HMG-CoA reductase. To characterize the level at which plant-derived isoprenoids regulate reductase activity, lovastatin treated Syrian Hamster C100 cells were incubated with mevalonate or an isoprenoid (limonene, perillyl alcohol, or geraniol). These monoterpenes were selected because they are representative of isoprenoids found in a wide variety of plants, fruits and grains. C100 cells in which endogenous mevalonate biosynthesis is blocked with lovastatin have been a useful system to evaluate the effects of oxysterols and mevalonate-derived isoprenoids, either alone or in combination, on HMG-CoA reductase levels and rates of synthesis or degradation. […] The effects of the three isoprenoids on reductase degradation were also determined by measuring the half-life of HMG-CoA reductase.

HMG-CoA reductase mRNA = HMG-CoA reductase mRNA levels in lovastatin-treated C100 cells; assay type: cell-based, Syrian Hamster; settings: for reductase mRNA level lowered by / impact on HMG-CoA reductase mRNA levels: lovastatin treated C100 cells
Experimental: as §6

HMG-CoA reductase [5] = assay: HMG-CoA reductase degradation (half-life) in lovastatin-treated SV28 cells; assay type: cell-based
Experimental: as §6

Rab3A = assay: Western blot of Rab3A; assay type: cell-based, human; settings: DU145 cells; perillyl alcohol 400 μM 16 hr
Experimental: as §1, §2

[6] = DU145 conditioned media, genistein 20 μM (control 30.71), γ-tocotrienol 20 μM (control 23.5)
[7] = PC-3 conditioned media, genistein 20 μM (control 46.95), γ-tocotrienol 20 μM (control 18.14)
[8] = DU145 conditioned media, genistein 20 μM (control 15.05), γ-tocotrienol 20 μM (control 5.5)
[9] = PC-3 conditioned media, genistein 20 μM (control 11.85), γ-tocotrienol 20 μM (control 18.14)

SMILES	percent invaded [1] [%]	invasive ability of PC-3 cells [1]	MMP-9 activity (MMP-9; DU145 cells)	MMP-9 Count (MMP-9; [6])	MMP-9 activity (MMP-9; PC-3 cells)	MMP-9 Count (MMP-9; [7])	MMP-2 Count (MMP-2; [8])	MMP-2 Count (MMP-2; [9])	reductase synthesis lowered by (HMG-CoA reductase [4]) [%]	further results
O=c1c(-c2ccc(O)cc2)coc2cc(O)cc(O)c12 [Genistein, genistein]	0	inhibited the invasive ability of PC-3 cells, with genistein exhibiting the greatest effect	exhibited no similar effect	47.64	nearly ninety percent	5.25	23.54	4.25		4E-BP1 Ser65 phosphorylation (Western blot) (4E-BP1 (Ser65)): did not appear to affect Ser65 phosphorylation of the upper band but reduced phosphorylation of the lower of the two bands; concentration inhibiting growth [2]: above 50 μmol; Diameter (cm) of collagen gel (PC-3): 3.5 cm; Diameter (cm) of collagen gel (DU145): 3.2 cm; concentration shown to induce apoptosis [3]: above 20 μM
CC(C)=CCC/C(C)=C/CO [Geraniol, geraniol]									98	reductase mRNA level lowered by (HMG-CoA reductase mRNA): 64%; effect on half-life of reductase (HMG-CoA reductase [5]): Neither limonene nor geraniol affected the half-life
CC[C@H](C)C(=O)O[C@H]1C[C@@H](C)C=C2C=C[C@H](C)[C@H](CC[C@@H]3C[C@@H](O)CC(=O)O3)[C@H]21 [Lovastatin, lovastatin, reference compound]										Rate of Synthesis (reductase) (HMG-CoA reductase [4]; percentage (mean ± S.D.) of lovastatin-treated C100 cells set at 100%, 1 hr 35S labeling, mevalonate 10 mM, limonene 5 mM, perillyl alcohol 0.7 mM, geraniol 0.4 mM): 100 ± 15%; mRNA Levels (reductase) (HMG-CoA reductase mRNA; percentage of lovastatin-treated cells set at 100%, corrected to RP S17 mRNA, mevalonate 10 mM, limonene 5 mM, perillyl alcohol 0.7 mM, geraniol 0.4 mM): 100 ± 5%
CC(O)(CCO)CC(=O)O (stereo not shown) [Mevalonate, mevalonate, reference compound]									65	reductase mRNA level lowered by (HMG-CoA reductase mRNA): 65%; HMG-CoA reductase half-life decreased by (HMG-CoA reductase [5]): approximately 60%
C=C(C)[C@@H]1CC=C(CO)CC1 [Perillyl Alcohol, perillyl alcohol]	5	inhibited the invasive ability	nearly extinguished all MMP-9 activity	0.09	exhibited no similar effect	72.65	10.63	6.73	89	4E-BP1 Ser65 phosphorylation (Western blot) (4E-BP1 (Ser65)): reduced Ser65 phosphorylation; extracellular matrix remodeling of gel ball (PC-3; PC3 cells, FIG. 9): retards matrix remodeling; Diameter (cm) of collagen gel (PC-3): 3.2 cm; Diameter (cm) of collagen gel (DU145): 3.75 cm; Rab3A protein level (Western blot) (Rab3A): further reduce the levels of Rab3A protein; impact on HMG-CoA reductase mRNA levels (HMG-CoA reductase mRNA): neither limonene nor perillyl alcohol had a significant impact
C=C(C)[C@H]1CC=C(C)CC1 [limonene]									70	impact on HMG-CoA reductase mRNA levels (HMG-CoA reductase mRNA): neither limonene nor perillyl alcohol had a significant impact; effect on half-life of reductase (HMG-CoA reductase [5]): Neither limonene nor geraniol affected the half-life
CC(C)=CCC/C(C)=C/CC/C(C)=C/CC[C@]1(C)CCc2cc(O)c(C)c(C)c2O1 [γ-tocotrienol]	7	inhibited the invasive ability	modest monotonic decreases	16.5	modest monotonic decreases	27.4	−2.2	15.3		MMP-2 activity (MMP-2; DU145 cells): modest monotonic decreases; MMP-2 activity (MMP-2; PC-3 cells): modest monotonic decreases
